Data set [1] in a line: UV-Vis-based stability assay in buffer. It counts as physicochemical. To be noted: for Stability in Buffer (UV-Vis-based assay): after 1 h, assay buffer pH 7.4, 37 °C, 50 µM; for Stability in buffer solutions: assay buffer / PBS pH 7.4. Here is the method: The aqueous stability of all compounds was determined spectrophotometrically by following the changes in the absorption spectra of the compounds. The buffer solution (50 mM Tris-HCl, 0.5 mM EDTA, pH 7.4) was pre-incubated at 37 °C. Aliquots of the compounds studied (1 mM in DMSO) were transferred to a 96-well flat-bottom UV-transparent microplate (Corning, CLS3635, Corning Inc, Corning, NY, USA) containing the buffer solution to obtain a 50 μM solution containing 5% DMSO (final volume, 300 μL). The plate was incubated without lid at 37 °C in a plate reader (Synergy H4, BioTek Instruments, Inc., Santa Clara, CA, USA) and the absorbance spectrum (244–400 nm) was acquired in sweep mode after 0, 15, 30, 60, 120, 180, and 240 min using a discontinuous kinetic procedure in Gen5 software (BioTek Instruments, Inc., Santa Clara, CA, USA). The time required to read the entire plate was 3 min. To determine the baseline, the compound solution was replaced with pure DMSO and subtracted from each reading. Compounds with an absorbance maximum of less than 0.20 AU were not evaluated using these assays due to the high experimental error. For other compounds, the relative absorbance difference between the first time point and 60 min at the most responsive wavelength was calculated. If the relative absorbance difference for the compound in the buffer was below 0.1, between 0.1–0.2, and above 0.2, the compound was classified as stable, intermediate, and unstable, respectively.

Another data set deals with T1, hAChE (Homo sapiens, UniProt P22303).
T1 construct: gift of Xavier Brazzolotto, Florian Nachon and José Dias (IRBA, Brétigny-sur-Orge, France)
The data set can be described thus: Cholinesterase assay (Ellman), hAChE. The following applies: 30 min pre-incubation, read-out: Residual activity [%] ± SD, hAChE. It counts as biochemical. Here is the method: (§1) The activity of the compounds against ChEs, namely hAChE and hBChE, was determined by the Ellman method. 5,5′-Dithiobis-2-nitrobenzoic acid (Ellman’s reagent; DTNB), butyrylthiocholine iodide, and acetylthiocholine iodides were from Sigma-Aldrich. Recombinant hAChE and hBChE were kindly provided by Xavier Brazzolotto, Florian Nachon, and José Dias (IRBA, Brétigny-sur-Orge, France). Reactions were performed in a final volume of 300 µL of 0.1 M phosphate-buffered solution, pH = 8.0, containing 370 µM DTNB, 500 μM butyrylthiocholine/acetylthiocholine iodide, and approximately 1 nM or 50–100 pM hBChE or hAChE, respectively. The reactions were started by the addition of the substrate after 30-min pre-incubation at room temperature. The final organic solvent (DMSO) content was always 1%. The formation of the yellow 5-thio-2-nitrobenzoate anion was monitored for 2 min at 412 nm, using a 96-well microplate reader (Synergy HT, BioTek Instruments, Inc., Santa Clara, CA, USA). The initial velocities in the presence (vi) and absence (vo) of the test compounds were calculated. Inhibitory potencies were expressed as residual activities (RA), according to the equation RA = (vi − b)/(vo − b), where b is the blank value.
Background: DTNB colorimetry detects thiols as they appear.

For another data set, the target named is T2, hBChE (Homo sapiens, UniProt P06276).
T2 construct: gift of Xavier Brazzolotto, Florian Nachon and José Dias (IRBA, Brétigny-sur-Orge, France)
The data set can be described thus: Cholinesterase assay (Ellman), hBChE. Type of data set: biochemical. The following applies: 30 min pre-incubation, read-out: Residual activity [%] ± SD, hBChE. Here is the method:
as §1

The target in another data set is T3, human caspase-1 (Homo sapiens, UniProt P29466).
T3 construct: purchased Sigma Aldrich, St. Louis, MO, USA C5482; host or cells: E. coli
T3 sequence (P29466 120-297 limits assumed): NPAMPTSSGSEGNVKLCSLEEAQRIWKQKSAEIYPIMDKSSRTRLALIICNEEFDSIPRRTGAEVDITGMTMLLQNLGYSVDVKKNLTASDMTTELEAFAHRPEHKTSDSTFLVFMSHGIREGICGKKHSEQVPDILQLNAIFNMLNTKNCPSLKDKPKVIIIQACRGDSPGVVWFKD
T3 sequence (P29466 317-404 limits assumed): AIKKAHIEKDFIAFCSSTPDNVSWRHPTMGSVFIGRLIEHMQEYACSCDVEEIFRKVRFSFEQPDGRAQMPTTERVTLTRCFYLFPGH
Kind of data set: Caspase-1 assay, Ac-YVAD-AMC. It counts as biochemical. To be noted: 30 min pre-incubation, read-out: Residual activity [%] ± SD, Caspase-1. Here is the method: The inhibitory activity of the compounds against caspase-1 was investigated by fluorimetric assay using Ac-YVAD-AMC (SCP0069-5 mg, Sigma Aldrich, St. Louis, MO, USA) as a substrate. Recombinant human caspase-1 (expressed in E. coli, C5482, batch: SLBX3303, Sigma Aldrich, St. Louis, MO, USA) was diluted with 1 mL of assay buffer (50 mM HEPES pH 7.4, 100 mM NaCl, 1 mM EDTA, 10% (v/v) glycerol, 0.1% CHAPS, 1 mM DTT), divided into 50 µL aliquots and stored at −80 °C.
Briefly, compounds were incubated at a concentration of 100 µM (or 1% (v/v) DMSO as a control) with caspase-1 (1:5 dilution of caspase-1 stock solution) in assay buffer without DTT (to exclude reaction of compounds with DTT) in a 384-well microplate at room temperature for 30 min. The reaction was started by adding the substrate Ac-YVAD-AMC (final concentration: 20 µM) and monitored at λex = 360/40 and λem = 460/40 (Synergy HT, BioTek Instruments, Inc., Santa Clara, CA, USA) for 1 h. The initial linear ranges were used to calculate the velocity and determine RAs. Z-Val-Ala-DL-Asp-fluoromethylketone (N-1510, Bachem, Bubendorf, Switzerland) was used as a positive control.

Structures are written as SMILES.

T2 sequence (P06276 29-602): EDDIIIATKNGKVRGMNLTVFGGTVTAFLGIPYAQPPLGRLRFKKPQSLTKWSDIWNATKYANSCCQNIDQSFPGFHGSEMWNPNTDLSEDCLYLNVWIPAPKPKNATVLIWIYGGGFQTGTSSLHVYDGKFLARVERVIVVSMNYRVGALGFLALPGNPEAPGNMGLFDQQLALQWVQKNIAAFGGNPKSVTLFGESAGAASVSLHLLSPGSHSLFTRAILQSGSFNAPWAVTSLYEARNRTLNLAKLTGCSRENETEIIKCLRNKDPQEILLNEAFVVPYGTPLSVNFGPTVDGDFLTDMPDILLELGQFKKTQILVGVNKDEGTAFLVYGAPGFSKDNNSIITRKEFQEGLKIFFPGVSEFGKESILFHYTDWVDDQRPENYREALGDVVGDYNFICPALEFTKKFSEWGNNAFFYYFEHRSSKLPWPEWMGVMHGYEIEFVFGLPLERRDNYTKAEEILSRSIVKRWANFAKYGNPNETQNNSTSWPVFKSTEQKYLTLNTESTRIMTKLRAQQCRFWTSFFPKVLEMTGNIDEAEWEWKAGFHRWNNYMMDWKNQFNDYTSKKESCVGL
T1 sequence (P22303 32-614): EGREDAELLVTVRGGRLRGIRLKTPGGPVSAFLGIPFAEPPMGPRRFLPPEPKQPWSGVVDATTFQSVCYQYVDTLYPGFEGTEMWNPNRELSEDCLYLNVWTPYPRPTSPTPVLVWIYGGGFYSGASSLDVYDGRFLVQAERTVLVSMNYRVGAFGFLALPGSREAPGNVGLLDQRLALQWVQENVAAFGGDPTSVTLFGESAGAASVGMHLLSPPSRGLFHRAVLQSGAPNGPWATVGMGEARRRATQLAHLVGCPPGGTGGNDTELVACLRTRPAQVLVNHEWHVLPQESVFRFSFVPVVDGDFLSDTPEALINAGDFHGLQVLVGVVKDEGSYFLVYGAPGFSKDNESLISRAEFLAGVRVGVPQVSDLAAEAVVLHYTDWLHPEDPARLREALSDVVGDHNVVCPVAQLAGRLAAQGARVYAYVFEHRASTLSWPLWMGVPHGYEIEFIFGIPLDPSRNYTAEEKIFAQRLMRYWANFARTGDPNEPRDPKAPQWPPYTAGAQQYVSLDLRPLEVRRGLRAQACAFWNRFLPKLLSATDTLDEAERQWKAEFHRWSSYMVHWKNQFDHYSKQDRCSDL

For the molecule `CC(C)C[C@H](NC(=O)Cc1ccc2oc(C#N)nc2c1)B(O)O` [Compound 40], in data set [1], the “Stability in Buffer (UV-Vis-based assay)” value is “stable ^b (relative absorbance difference for the compound in the buffer was below 0.1)”. Moreover, in data set [1], the “Stability in buffer solutions” value was “stable”. Moreover, the remaining activity at 100 µM at hAChE was 46 ± 1%; on hBChE, 33 ± 1%; on human caspase-1 it was greater than 50%.
For `N#Cc1nc2cc(O)ccc2o1` [Compound 11], the “Stability in Buffer (UV-Vis-based assay)” value in data set [1] is listed as “stable ^c (relative absorbance difference for the compound in the buffer was below 0.1)”. In addition, the remaining activity at 100 µM is 27 ± 1% at hAChE, greater than 50% at hBChE and 0% at human caspase-1.
Take `CC(C)C[C@H](NC(=O)CCCn1c(C#N)nc2ccccc21)B1O[C@@H]2C[C@@H]3C[C@@H](C3(C)C)[C@]2(C)O1` [Compound 31]: in data set [1], the “Stability in Buffer (UV-Vis-based assay)” value is reported as “stable ^b,c (relative absorbance difference for the compound in the buffer was below 0.1)”. Besides, the remaining activity at 100 µM on hAChE, at hBChE and at human caspase-1 was greater than 50% throughout.
With `CC(=O)Oc1cccc2oc(C#N)nc12` [Compound 14], the “Stability in Buffer (UV-Vis-based assay)” value in data set [1] was “stable ^c (relative absorbance difference for the compound in the buffer was below 0.1)”. For the same molecule, the remaining activity at 100 µM at hAChE was 11 ± 2%; at hBChE it was greater than 50%; at human caspase-1, 49 ± 5%.
With `CC(C)C[C@H](NC(=O)CCn1c(C#N)nc2ccccc21)B1O[C@@H]2C[C@@H]3C[C@@H](C3(C)C)[C@]2(C)O1` [Compound 30], in data set [1], the “Stability in Buffer (UV-Vis-based assay)” value is listed as “stable ^b,c (relative absorbance difference for the compound in the buffer was below 0.1)”. The remaining activity at 100 µM at hAChE, at hBChE and at human caspase-1 was greater than 50% each time.
In the case of `CC(C)C[C@H](NC(=O)Cc1ccc2oc(C#N)nc2c1)B1O[C@@H]2C[C@@H]3C[C@@H](C3(C)C)[C@]2(C)O1` [Compound 39], the “Stability in Buffer (UV-Vis-based assay)” value in data set [1] is listed as “stable ^b,c (relative absorbance difference for the compound in the buffer was below 0.1)”. In addition, the “Stability in buffer solutions” value in data set [1] is listed as “stable”. Also, the remaining activity at 100 µM is greater than 50% on hAChE, 45 ± 1% on hBChE and greater than 50% at human caspase-1.
Turning to `N#Cc1nc2c(O)cccc2o1` [Compound 10], in data set [1], the “Stability in Buffer (UV-Vis-based assay)” value was “stable ^c (relative absorbance difference for the compound in the buffer was below 0.1)”. The results for the remaining activity at 100 µM at hAChE, on hBChE and at human caspase-1 were 27 ± 2%, greater than 50% and 9 ± 3%, respectively.
The like results for `CC(C)C[C@H](NC(=O)CCCn1c(C#N)nc2ccccc21)B(O)O` [Compound 35] were, in that order, “stable ^b (relative absorbance difference for the compound in the buffer was below 0.1)”, greater than 50%, greater than 50% and greater than 50%.
As for `CC(C)C[C@H](NC(=O)CCn1c(C#N)nc2ccccc21)B(O)O` [Compound 34], the remaining activity at 100 µM on hAChE, at hBChE and at human caspase-1 was greater than 50% each time.
Consider `CC(C)C[C@H](NC(=O)CCn1c(C#N)nc2cccc(Cl)c21)B1O[C@@H]2C[C@@H]3C[C@@H](C3(C)C)[C@]2(C)O1` [Compound 38], for which the “Stability in Buffer (UV-Vis-based assay)” value in data set [1] is “stable ^b,c (relative absorbance difference for the compound in the buffer was below 0.1)”. Moreover, the remaining activity at 100 µM at hAChE, on hBChE and on human caspase-1 was greater than 50% in each case.
On to `CC(=O)Oc1ccc2oc(C#N)nc2c1` [Compound 15], for which the “Stability in Buffer (UV-Vis-based assay)” value in data set [1] is on record as “stable ^c (relative absorbance difference for the compound in the buffer was below 0.1)”. Besides, the remaining activity at 100 µM is 33 ± 2% on hAChE, greater than 50% on hBChE and 12 ± 2% on human caspase-1.
As for `N#Cc1nc2cccc(O)c2o1` [Compound 13], in data set [1], the “Stability in Buffer (UV-Vis-based assay)” value is “stable ^c (relative absorbance difference for the compound in the buffer was below 0.1)”. In addition, the results for the remaining activity at 100 µM on hAChE, on hBChE and at human caspase-1 were 25 ± 1%, greater than 50% and 5 ± 1%, respectively.
With `COc1cccc2oc(C#N)nc12` [Compound 6], the “Stability in Buffer (UV-Vis-based assay)” value in data set [1] is listed as “stable ^c,d (relative absorbance difference for the compound in the buffer was below 0.1)”. Moreover, the remaining activity at 100 µM on hAChE is greater than 50%; on hBChE it was 36 ± 1%.
As for `C=Cc1nc(CC(=O)N[C@@H](CC(C)C)B2O[C@@H]3C[C@@H]4C[C@@H](C4(C)C)[C@]3(C)O2)cs1` [Compound 28], the remaining activity at 100 µM is greater than 50% on hAChE, 27 ± 3% on hBChE and greater than 50% at human caspase-1.
